The results in this text go back to ChEMBL document CHEMBL3867469, “Discovery of phenoxyindazoles and phenylthioindazoles as RORγ inverse agonists” (Bioorg Med Chem Lett, 2016).

SMILES strings stand for the structures.

Series [1] concerns the target T1, Retinoic acid receptor gamma (Homo sapiens, UniProt P13631).
T1 sequence (P13631 whole entry): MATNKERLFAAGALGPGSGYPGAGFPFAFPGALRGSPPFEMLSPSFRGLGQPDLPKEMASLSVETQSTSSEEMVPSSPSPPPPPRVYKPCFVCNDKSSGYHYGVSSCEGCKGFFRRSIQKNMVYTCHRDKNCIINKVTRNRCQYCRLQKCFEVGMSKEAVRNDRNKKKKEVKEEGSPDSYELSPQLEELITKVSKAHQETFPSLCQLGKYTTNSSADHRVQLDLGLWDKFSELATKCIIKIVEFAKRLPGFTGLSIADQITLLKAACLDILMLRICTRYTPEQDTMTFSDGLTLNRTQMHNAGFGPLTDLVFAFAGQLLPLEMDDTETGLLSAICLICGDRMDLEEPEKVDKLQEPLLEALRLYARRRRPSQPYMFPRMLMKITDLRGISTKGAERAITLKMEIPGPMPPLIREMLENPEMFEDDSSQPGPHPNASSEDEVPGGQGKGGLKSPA
Description: Inverse agonist activity at GAL4 DBD-fused RARgamma LBD (unknown origin) expressed in human HG5LN cells after 18 hrs by luciferase reporter gene assay

The target of series [2] is T2, Nuclear receptor ROR-gamma (Homo sapiens, UniProt P51449).
T2 sequence (P51449 whole entry): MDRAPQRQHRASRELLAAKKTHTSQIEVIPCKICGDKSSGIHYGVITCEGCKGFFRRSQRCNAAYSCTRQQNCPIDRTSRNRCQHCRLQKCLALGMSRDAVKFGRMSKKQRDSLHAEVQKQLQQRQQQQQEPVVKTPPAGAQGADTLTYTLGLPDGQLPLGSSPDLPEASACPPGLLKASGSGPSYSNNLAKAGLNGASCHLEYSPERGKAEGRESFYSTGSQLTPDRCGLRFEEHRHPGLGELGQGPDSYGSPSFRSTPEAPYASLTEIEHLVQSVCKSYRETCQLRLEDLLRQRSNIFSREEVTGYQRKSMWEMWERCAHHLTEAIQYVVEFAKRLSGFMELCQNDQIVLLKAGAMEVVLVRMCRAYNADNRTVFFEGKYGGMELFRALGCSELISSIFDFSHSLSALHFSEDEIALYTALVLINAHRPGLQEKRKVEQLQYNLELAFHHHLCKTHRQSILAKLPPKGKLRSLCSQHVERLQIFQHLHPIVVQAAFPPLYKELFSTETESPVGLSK
Description: Inverse agonist activity at GAL4 DBD-fused RORgammat LBD (unknown origin) expressed in HG5LN cells after 18 hrs by luciferase reporter gene assay

Series [3] in a line: physchem. As to conditions: buffer, pH 6.5.

`CCS(=O)(=O)c1ccc(CC(=O)Nc2nc(-c3cccc(Cl)c3)c(C(=O)c3ccccc3Cl)s2)cc1`: the IC50 in series [1] is more than 10 µM; in series [2] it was 0.08 µM. In addition, in series [3], the logD turned out to be 5.2.

In the case of `CN(Cc1ccccc1)C(=O)c1ccc2c(c1)c(Sc1c(Cl)cccc1Cl)nn2-c1ccc(C(=O)O)cc1`, the IC50 in series [1] and in series [2] was more than 10 µM in each case. In series [3], this compound returned a logD of 2.9.

Regarding `O=C(O)c1ccc(-n2nc(Sc3c(Cl)cccc3Cl)c3cc(C(=O)N4CCC4)ccc32)cc1`, the results for the IC50 in series [1] and in series [2] were 4.1 µM and 1.2 µM, respectively. In series [3], this compound showed a logD of 1.7.

`Cc1ccccc1Sc1nn(-c2ccc(C(=O)O)cc2)c2ccc(C(=O)N(C)C)cc12`: the IC50 in series [1] and in series [2] was more than 10 µM in each case. The same compound gave a logD in series [3] of 1.4.

Consider `Cc1cc(C)c(Sc2nn(-c3ccc(C(=O)O)cc3)c3ccc(C(=O)N(C)C)cc23)c(C)c1`, for which the IC50 was more than 10 µM in series [1] and 2.7 µM in series [2]. In addition, the logD in series [3] amounted to 2.1.

Consider `CN(C)C(=O)c1ccc2c(c1)c(Sc1cc(Cl)ccc1Cl)nn2-c1ccc(C(=O)O)cc1`, for which the half-inhibitory concentration (IC50) in series [1] is more than 10 µM; in series [2], 4.3 µM. Besides, the logD in series [3] was 1.9.

`CN(C)C(=O)c1ccc2c(c1)c(Nc1c(Cl)cccc1Cl)nn2-c1ccc(C(=O)O)cc1`: the IC50 was more than 10 µM in series [1] and 3.6 µM in series [2]. The logD in series [3] is 0.9.

As to `CCN(C)C(=O)c1ccc2c(c1)c(Sc1c(Cl)cccc1Cl)nn2-c1ccc(C(=O)O)cc1`, the values for the IC50 in series [1] and in series [2] were more than 10 µM and 6.5 µM, respectively. In series [3], this compound registered a logD of 1.9.

Consider `CN(CCO)C(=O)c1ccc2c(c1)c(Sc1c(Cl)cccc1Cl)nn2-c1ccc(C(=O)O)cc1`, for which the IC50 in series [1] and in series [2] was more than 10 µM in each case. In series [3], this compound returned a logD of 0.8.

For the compound `CN(C)C(=O)c1ccc2c(-c3ccc(C(=O)O)cc3)nn(C(=O)c3c(Cl)cccc3Cl)c2c1`, the IC50 in series [1] was more than 10 µM; in series [2], 0.054 µM. Besides, in series [3], the logD was 1.3.

Consider `CN(C)C(=O)c1ccc2c(c1)c(Oc1c(Cl)cccc1Cl)nn2-c1ccc(C(=O)O)cc1`, for which the IC50 in series [1] was more than 10 µM; in series [2], 0.3 µM. This compound also showed a logD in series [3] of 1.5.

As to `O=C(O)c1ccc(-n2nc(Sc3c(Cl)cccc3Cl)c3cc(C(=O)N4CCCC4)ccc32)cc1`, the IC50 was more than 10 µM in series [1] and 2.6 µM in series [2]. Besides, the logD in series [3] came out at 1.9.

`O=C(O)c1ccc(-n2nc([S+]([O-])c3c(Cl)cccc3Cl)c3ccccc32)cc1` (centres undefined): the IC50 was 5.6 µM in series [1] and 6.2 µM in series [2]. The compound also showed a log distribution coefficient (logD) in series [3] of 1.2.

On to `O=C(O)c1ccc(-n2nc(Nc3c(Cl)cccc3Cl)c3ccccc32)cc1`, for which the IC50 was more than 10 µM in series [1] and 2.5 µM in series [2]. The logD in series [3] turned out to be 1.9.

Take `CN(C)C(=O)c1ccc2c(c1)c(Sc1ccccc1)nn2-c1ccc(C(=O)O)cc1`: the IC50 is 3.5 µM in series [1] and more than 10 µM in series [2]. Moreover, the logD in series [3] was 1.

Consider `CNC(=O)c1ccc2c(c1)c(Sc1c(Cl)cccc1Cl)nn2-c1ccc(C(=O)O)cc1`, for which the figures for the IC50 in series [1] and in series [2] were 2.7 µM and more than 10 µM, respectively. In series [3], this compound had a logD of 1.2.

Turning to `O=C(O)c1ccc(-n2nc(Cc3c(Cl)cccc3Cl)c3ccccc32)cc1`, the IC50 in series [1] was 6.8 µM; in series [2], 1.8 µM. The compound further registered a logD in series [3] of 2.8.

On to `CN(c1c(Cl)cccc1Cl)c1nn(-c2ccc(C(=O)O)cc2)c2ccccc12`, for which the IC50 in series [2] was more than 10 µM. Moreover, in series [3], the logD came to 2.6.

As for `Cc1ccc([C@@H](NC(=O)Cc2ccc3oc([C@@H](O)c4c(C)noc4C)cc3c2)c2ccccc2)c(C)c1`, the concentration for half-maximal inhibition (IC50) in series [1] was more than 10 µM; in series [2], 0.044 µM. Also, in series [3], the logD was determined as 4.7.

Take `O=C(O)c1ccc(-n2nc(S(=O)(=O)c3c(Cl)cccc3Cl)c3ccccc32)cc1`: the values for the IC50 in series [1] and in series [2] were 8.4 µM and 4.8 µM, respectively. The compound also registered a logD in series [3] of 1.8.

The term IC50 denotes the midpoint of a concentration-inhibition curve. A high value points to weaker potency in that assay. As a reminder, the logD is lipophilicity at a set pH, counting ionised and neutral species.
